According to US11110104B2, “Glutamine antagonists for the treatment of cognitive deficits and psychiatric disorders” (THE JOHNS HOPKINS UNIVERSITY, priority 2015, dated 2021):
Entries after “also recorded” stand apart in the source; their conditions may differ. Like-named read-outs stand apart in the source and are kept apart here.

Columns and labels:
[1] = Stability in monkey plasma; assay type: in vitro ADME
[2] = Stability in human plasma; assay type: in vitro ADME
[3] = Pharmacokinetics of DON in swine plasma and CSF; settings: 60 min post-administration
LPS-treated mice = assay: LPS-induced deficit in contextual fear memory reconsolidation; assay type: in vivo, mouse; settings: 1.9 mg/kg, i.p. co-administered with LPS 0.3 mg/kg, i.p. on Day 2
Method: Fear conditioning and testing were performed in sound-attenuating chambers equipped with a metal grid floor to deliver calibrated inescapable footshocks. Fear conditioning (Day 1) consisted of a 2 minute habituation period followed by three 20 second 80 dB 2 kHz tones co-terminating in 0.4 mA footshocks separated by 1 minute interstimulus intervals. One day later (Day 2), each mouse was randomized into one of four treatment groups (PBS/Vehicle, PBS/9, LPS/Vehicle, LPS/9) and co-administered either LPS (0.3 mg/kg, i.p.) or filtered PBS with either 9 (1.9 mg/kg, i.p.) or Vehicle. Four hours later, each mouse was exposed to a reactivation session in which they were placed back in the fear conditioning context for 15 minutes. One day later (Day 3), each mouse underwent a test for fear memory reconsolidation by being placed again in the fear conditioning context for 10 minutes. For each session, time spent freezing was determined using automated motion detection software (CleverSys) and converted to percentages.
Freezing percentages during the reconsolidation test were grouped by treatment into 2 minute bins. Between group differences were determined by repeated measure two-way ANOVA and post hoc Dunnett's test with significance defined as p<0.05.

CSDS mice [4] = assay: Sucrose preference test after CSDS; assay type: in vivo, mouse
Method: (§1) Compound 25 was synthesized by our laboratory. For all pharmacokinetic and efficacy studies, compound 25 was administered per oral (p.o.) at a dose of 1.82 mg/kg (1 mg/kg DON equivalent) in 50 mM HEPES-buffered saline.
The sucrose preference test was performed according to a previously described protocol (Cao et al, 2013; Roybal et al, 2007). The mice were singly caged before the test. On day 1, their normal water bottles were replaced with two 50 ml tubes (bottle ‘A’ and bottle ‘B’) fitted with bottle stoppers containing two-balled sipper tubes. The position of bottles A and B were switched daily to avoid a side bias, and the fluid consumed from each bottle was measured daily. During days 1 and 2, bottles A and B were filled with normal drinking water (W/W). During days 3 and 4, both bottles were filled with a solution of 1.5% sucrose dissolved in drinking water (S/S). On days 5-8, bottle A contained 1.5% sucrose, and bottle B contained drinking water […]. Sucrose preference on each day for each mouse was calculated as 100%×(Vol A/(Vol A+Vol B)) and averaged across the days for a given condition (W/W, S/S, or S/W). The average of total fluid consumption was also calculated as (Vol A+Vol B).
To examine the effect of compound 25 treatment on anhedonia-like behavior, control and CSDS mice were subjected to an 8-day sucrose preference test.

glutamate in CSF = assay: CSF glutamate levels in EcoHIV mice (LC/MS); assay type: in vivo, mouse
Method: CSF samples were derivatized with dabsyl chloride for analysis. To prepare a dabsyl chloride stock, acetone was added to dabsyl chloride to 10 mM concentration, vortexed, water bath sonicated for 10 minutes followed by heating to 60° C. for 10 minutes, vortexing again, centrifugation for 5 minutes at 16,000×g and taking the supernatant. Ten microliter standards of glutamate were prepared in artificial CFS by serial dilution. To each standard and sample, one volume of 0.2 M sodium bicarbonate buffer (pH 9.0 containing 100 μM glutamate-d5 as internal standard) and 2 volumes dabsyl chloride stock was added. Samples were incubated at 60° C. 10 minutes to derivatize. […] Glutamate was quantifiable to 10 nM.
Male C57BL6 mice were sham or EcoHIV-inoculated (4e6 pg p24, i.p.) then randomized to receive vehicle or compound 25 (1.82 mg/kg, i.p. every other day) beginning 15 post-inoculation. On day 33 post-inoculation, all mice were deeply anesthetized with isoflurane 30 minutes post-last dose, and CSF was terminally sampled from the cistema magna prior to measurement of glutamate concentrations by LC/MS-MS. EcoHIV infection caused increases in CSFS glutamate that were normalized by compound 25 treatment. Excluding values >2SD from mean, n=4-5/group. Analysis by two-way ANOVA followed by post-hoc Fisher's LSD, *p<0.05, ***p<0.001. Data are presented as the mean+SEM.

CSDS mice [5] = assay: Three-chambered social approach test after chronic social defeat stress (CSDS); assay type: in vivo, mouse
Method: as §1
Male 7- to 8-week-old C57BL/6J (C57) mice (25-30 g; Jackson Laboratory, Bar Harbor, Me.) and 4- to 6-month-old CD-1 retired breeders (35-45 g; Charles River Laboratories, Wilmington, Mass.) were used for all experiments. Mice were housed on a reversed 12-h light/dark cycle, and maintained in a humidity- and temperature-controlled room with water and food available ad libitum. CD-1 mice were singly housed except during social defeats. C57 mice were group housed before starting CSDS and singly housed after CSDS. Behavioral experiments were conducted during the dark cycle. All studies were conducted with approved protocols from the Johns Hopkins University Institutional Animal Care and Use Committee and were in accordance with the NIH guidelines for the Care and Use of Laboratory Animals.
Mice were exposed to CSDS and subsequently administered compound 25 or vehicle every other day for 12 days (FIG. 14A). To examine the effect of compound 25 treatment on behavioral phenotypes induced by CSDS, we first tested the mice in the three-chambered social approach test, where the social approach of a mouse toward a stranger mouse trapped in a wire cage was measured.

NRGN = assay: Gene expression by QPCR in basal ganglia brain tissues of EcoHIV-infected mice; assay type: in vivo, mouse; settings: DON treatment reversal experiment; tissues collected 15 min after last DON treatment
[6] = DON levels in plasma, CSF and basal ganglia of mice (LC-MS/MS); assay type: in vivo; settings: C57Bl, mouse, 15 minutes after dosing, DON 1 mg/kg
Method: DON was spiked into untreated mouse plasma to generate standards at concentrations from 10 nM to 100 μM at half-log intervals. Butanol with 3N HCl (250 μL) was added to standards and samples (50 μL) and centrifuged at 16,000×g for 5 minutes to precipitate proteins. […] After derivatization the samples were dried at 45° C. under a nitrogen stream. Samples were resuspended in 50 μL 70/30 water/acetonitrile, vortexed and centrifuged at 16,000×g. […] Standards within the quantifiable range were used to generate a standard curve. Samples below the limit of quantification (BLQ) were assigned a value of 0.
Brain analysis: Brain sections were weighed. DON was spiked into untreated mouse brain tissue to generate standards as described above. Butanol with 3N HCl (5 μL/mg) was added to standards and samples and homogenized by pestle followed by centrifugation at 16,000×g. An aliquot (200 μL) of the supernatant was transferred to a new tube and processed as described in the plasma analysis section. Twenty microliters was injected for analysis as described hereinabove.

EAE mice = settings: cited from earlier work
EcoHIV-infected mice [7] = assay: Radial arm water maze, DON prophylaxis in EcoHIV-infected mice
STX1A = assay: Gene expression by QPCR in basal ganglia brain tissues of EcoHIV-infected mice; assay type: in vivo, mouse; settings: DON treatment reversal experiment; tissues collected 15 min after last DON treatment
Method: Relative extent of gene expression tested by QPCR in basal ganglia brain tissues obtained from mice tested in DON treatment reversal experiment shown in FIG. 2A, FIG. 2B, and FIG. 2C. The tissues were collected 15 min after the last DON treatment;

EcoHIV-infected mice [8] = assay: Radial arm water maze, therapeutic DON treatment of EcoHIV-infected mice; assay type: in vivo, mouse; settings: DON 1 mg/kg every other day started 26 days after EcoHIV infection; tests from day 30
Method: The experimental design was for DON prophylaxis except that mice were infected first and DON administration at 1 mg/kg every other day started on Day 26 after infection.

[9] = DON 1 mg/kg, i.p., […], 30 days post-infection

CC(C)OC(=O)[C@H](CCC(=O)C=[N+]=[N-])NC(=O)O[C@H](C)OC(=O)C(C)(C)C (single isomer, unassigned) [Compound 14b]
stability in monkey plasma [1]: unexpected stability | stability in human plasma [2]: unexpected stability | CSF-to-plasma ratio of DON relative to DON [3]: increased CSF-to-plasma ratios | amount of DON delivered to the CSF relative to DON [3]: substantially higher amounts of DON to the CSF

CC(C)C[C@H](N)C(=O)N[C@@H](CCC(=O)C=[N+]=[N-])C(=O)OC(C)C [Compound 9]
LPS-induced reduced freezing during the reconsolidation test (Day 3) (LPS-treated mice): attenuated; also recorded: indistinguishable from PBS/Veh mice

CCOC(=O)[C@H](CCC(=O)C=[N+]=[N-])NC(=O)[C@@H](N)CC(C)C [Compound 25]
sucrose consumption (sucrose preference) in the CSDS group, days 5-8 (CSDS mice [4]; 1.82 mg/kg p.o. (1 mg/kg DON equivalent), CSDS mice): markedly restored sucrose consumption | sucrose consumption (sucrose preference) in controls, days 5-8 (CSDS mice [4]; 1.82 mg/kg p.o., control mice): no change was observed in controls | EcoHIV-induced increases in CSF glutamate concentration (glutamate in CSF; 1.82 mg/kg, i.p. every other day, CSF sampled day 33 post-inoculation, 30 minutes post-last dose): significantly reversed EcoHIV-induced increases in CSF glutamate concentration | social behaviors (time in chamber, time sniffing) in mice subjected to CSDS (CSDS mice [5]; 1.82 mg/kg p.o. (1 mg/kg DON equivalent) every other day for 12 days after CSDS): normalized observed social behaviors | sociability in control mice (CSDS mice [5]; 1.82 mg/kg p.o. every other day for 12 days, control mice): no effect on sociability in control mice

CC(C)OC(=O)[C@H](CCC(=O)C=[N+]=[N-])NC(=O)OC(OC(=O)C(C)(C)C)c1ccccc1 (stereo partly drawn) [Compound 47]
CSF-to-plasma ratio of DON relative to DON [3]: increased CSF-to-plasma ratios | amount of DON delivered to the CSF relative to DON [3]: substantially higher amounts of DON to the CSF

[N-]=[N+]=CC(=O)CC[C@H](N)C(=O)O [DON, 6-diazo-5-oxo-L-norleucine]
glutamate in CSF of EcoHIV mice (glutamate in CSF; DON-treated mice, no significant differences by one-way ANOVA): tended to decrease the glutamate in the EcoHIV mice | NRGN gene expression in basal ganglia (NRGN): reversed HIV-mediated down-modulation | concentration at 15 min ([6]; CSF, read-out: DON concentration in CSF): 0.3 to 0.5 µM | concentration at 15 min ([6]; brain (basal ganglia), read-out: DON concentration in brain tissue (basal ganglia)): 0.3 to 0.5 µM | concentration at 15 min ([6]; plasma, read-out: DON concentration in plasma): 2.5 to 3 µM | EAE (disease score), DON from time of immunization (EAE mice; DON i.p. q.a.d. 1.6 mg/kg from the time of immunization (Shijie, et al., 2009)): attenuates EAE | EAE (disease score), lower doses of DON (EAE mice; DON i.p. q.a.d., doses lower than 1.6 mg/kg (Shijie, et al., 2009)): ineffective | HIV-induced cognitive impairment (radial arm water test, learning and memory) (EcoHIV-infected mice [7]; DON 1 mg/kg on alternate days from 24 h before EcoHIV infection, tested 30 days after infection): prevents development of HIV-induced cognitive impairment | cognitive performance as measured by errors (RAWM, hidden platform) (EcoHIV-infected mice [7]; [9]): fully normalized cognitive performance | cognitive performance as measured by latency to escape (RAWM, hidden platform) (EcoHIV-infected mice [7]; [9]): fully normalized cognitive performance | STX1A gene expression in basal ganglia (STX1A): reversed HIV-mediated down-modulation | cognitive disease (radial arm water maze) (EcoHIV-infected mice [8]): completely abrogates (reverses) cognitive disease
